Results from patent US5614192A, “T cell receptor peptides as therapeutics for immune-related disease” (Connective Therapeutics, Inc., priority 1993, dated 1997).

Columns and labels:
[1] = system: lymph node cells and Vβ8-44-54 selected T cell line
EAE [2] = experiment: Prevention, suppression and treatment of EAE with TCR Vβ8-39-59 peptide (Table 25); type: in vivo, Lewis rats; conditions: peptide/CFA s.q.
DTH response = experiment: Delayed hypersensitivity responses to TCR peptides, ear swelling (Table 26); type: in vivo, Lewis rats
TCR Vβ8(39-59) peptide = type: binding, rat
EAE [3] = experiment: Clinical EAE in rats treated with TCR Vβ8(39-59) before or after onset (Table 22); type: in vivo; conditions: Exp. 2; control TCR peptide, day 13
Experimental: The ability of the TCR Vβ8(39-59) given either SC (in adjuvant) or ID (in saline) to disrupt the disease process when given at various times after induction of EAE with GPBP was tested (Table 22). […] In both cases, with both routes of injection of the peptide, there was a significant reduction in the duration of the disease, though not in the severity or time of onset. The efficacy of the peptide given in saline via the ID route is of particular importance to human therapy, as it is preferred to SC injection in adjuvant.
In Experiment 2, the time of ID administration of the TCR peptide was varied, as was the dose. […] A delay in onset of the disease was also observed. Furthermore, the percentage of animals showing signs of the disease decreased. A larger dose of the peptide (200 μg) appeared less efficacious than the lower dose, possibly due to a short-term overload of the peptide which could have comprised the immune response generated against the TCR. Treatment with a similarly sized peptide corresponding to an irrelevant TCR had no effect on onset, severity or incidence of EAE, but may have reduced the duration somewhat (last line of Table 22).

EAE [4] = experiment: Prevention of EAE by immunization with TCR peptide (Example VI); type: in vivo, Lewis rats; conditions: for protection from EAE: Lewis rats
Description: EAE is a well-recognized rat model of the human autoimmune disease, multiple sclerosis. […] In this model, the disease is induced by injecting the subject rat with an encephalitogenic form of myelin basic protein, such as, for example, guinea pig basic protein (GPBP) or a synthetic peptide that corresponds to residues 72-89 of GPBP (GPBP(72-89)). Injection of either of these peptides in complete Freund's adjuvant (CFA) induces encephalitogenic T cell clones that utilize preferentially the rat homologs of mouse TCR Vα2 and Vβ8 genes (Chou, Y. K., et al., J. Neurosci. Res. 22:181-187 (1989); Burns, F. R., et al., J. Exp. Med. 169:27-39 (1989)).
^1 EAE was induced by SC challenge with 50 μg GPBP + 400 μg
^2 Rats were injected SC with either: (1) 100 μg of the TCR peptid
^3 Values represent the mean of the maximum severity of EAE. 0, no

LNC and T cell lines = experiment: T cell proliferation after treatment of EAE with TCR Vβ8 39-59/CFA (Table 27); type: cell-based, rats
Experimental: Lymphocyte Proliferation: Activation of T cells was measured by ^3 H-Tdy uptake. 500,000 lymph node cells or 20,000 line cells in the presence of 1 million irradiated thymic accessory cells were incubated with culture medium and antigens in microtiter wells for 18 hours prior to the addition of 0.5 μBq labeled thymidine. The cell cultures were harvested onto glass fiber filters and counted by liquid scintillation techniques. Mean CPM were calculated from triplicate cultures. Standard deviations (SD) from replicate cultures varied <10% from the mean value.
^a Treated rats were injected s.q. with 50 μg TCR Vβ839-59
^b LW cells collected after the untreated group recovered from EAE

EAE [5] = experiment: Prevention and suppression of EAE by immunization with TCR Vβ8(39-59) (Table 17); type: in vivo, Lewis rats; conditions: 100 μg peptide/CFA day 0, Gp-S49S (100 μg) challenge day 0
[6] = system: T cell lines derived from rats protected from EAE; experiment: Proliferation of LN cells and T cell lines from rats protected by TCR Vβ8 peptide (Table 12); type: cell-based, rat
T cell immunity = T cell immunity / DH response induced by peptide; type: in vivo; conditions: Lewis rats
Description: Immunogenicity of peptides useful in the present invention can be screened by well-known methods, such as use of a DH response in an animal. In such a response, an animal is "sensitized" by injection of an appropriate dose of an antigen, typically subcutaneously (SC), frequently with an adjuvant, such as complete Freund's adjuvant (CFA). Generally about 5-15 days later, the response is "elicited" by challenging the animal, typically intradermally (ID), with an appropriate dose of the antigen, typically in saline or other buffer. The response is assessed 24-48 hours later. […]
The desired peptides, with sequences determined as described above, are prepared using standard synthesis techniques including solution and solid phase sequential amino acid conjugation and recombinant production in prokaryotic or eukaryotic hosts. Verification that the peptide prepared is immunogenic can easily be determined using a DH reaction in an animal (e.g., mouse or rat), as described above. […] The ear swelling response, measured 24 or 48 hours after challenge, serves as a simple and reliable measure of the presence of T cell-mediated immunity to the peptide.

[7] = 100 μg peptide/CFA SC 30 days before GPBP/CFA

Sequence: APGGTLQQLFYSFNVGQSLF [TCR Vβ14 peptide, control peptide, residues 39-59 of rat TCR homologous to mouse Vβ14, reference compound]
- Response of Lymph Node Cells [1]: 18 ± 2
- Response of T Cell Line [1]: 9 ± 1
- Duration (EAE [2]; Day 0): 6.4 ± 0.3 days
- EAE/TOTAL (EAE [2]; Day 0): 6/6
- Max Clin. Signs (EAE [2]; Day 0): 3.3 ± 0.5
- Onset (EAE [2]; Day 0): 12
- Duration (EAE [2]; Day -40): 6.1 ± 0.6 days
- EAE/TOTAL (EAE [2]; Day -40): 8/8
- Max Clin. Signs (EAE [2]; Day -40): 3.2 ± 0.3
- Onset (EAE [2]; Day -40): 12
- Duration (EAE [2]; Day onset): 6.0 ± 1.5 days
- EAE/TOTAL (EAE [2]; Day onset): 4/4
- Max Clin. Signs (EAE [2]; Day onset): 3.0 ± 0.4
- Onset (EAE [2]; Day onset): 12
- 48 Hour DTH Response (DTH response; GP-BP/CFA immunized rats, ear test Day 12 (EAE onset)): 11 ± 4
- 48 Hour DTH Response (DTH response; Normal or saline/CFA rats, ear test Day 12): 10 ± 4
- 48 Hour DTH Response (DTH response; TCR Vβ8 peptide/CFA immunized rats, ear test Day 30): 9 ± 3
- 48 Hour DTH Response (DTH response; TCR Vβ814 (so in the source) peptide/CFA immunized rats, ear test Day 30): 40 ± 4
- absorbance of serum on TCR Vβ8(39-59) peptide (A405) (TCR Vβ8(39-59) peptide): 0.02±0.01 units
- Day of Onset (EAE [3]): 13.7 ± 0.5
- Disease Duration (EAE [3]): 3.5 ± 0.5
- Disease Incidence (EAE [3]): 6/6
- Disease Severity (EAE [3]): 2.5 ± 0.8
- EAE Day of Onset (EAE [4]; [7]): 14 ± 2
- EAE Duration (EAE [4]; [7]): 6 ± 2
- EAE Severity (mean of maximum severity, scale 0-4) (EAE [4]; [7]): 3.1 ± 0.3
- EAE Incidence (EAE [4]; 100 μg peptide/CFA SC 30 days before challenge with 50 μg GPBP/CFA): 4/4
- protection from EAE (EAE [4]): did not confer protection against EAE
- protection from EAE (EAE [4]; listed as Vβ14(39-59)): did not provide protection from EAE
- Proliferation (LNC and T cell lines; Treated rats, line Vβ8/1st): 8 ± 2 CPM/1000
- Proliferation (LNC and T cell lines; Untreated rats (GPBP/CFA only), LNC): 29 ± 4 CPM/1000
- Proliferation (LNC and T cell lines; Untreated rats, line BP/1st): 17 ± 2 CPM/1000
- Proliferation (LNC and T cell lines; Untreated rats, line Vβ8/1st): 11 ± 2 CPM/1000
- Proliferation (LNC and T cell lines; Untreated rats, line Vβ14/1st): 25 ± 6 CPM/1000
- Clinical Score (EAE [5]): 2.9
- T Cell Proliferation ([6]; 1st value column (head not given; LN cells of protected rats)): 10 cpm × 10^-3
- T Cell Proliferation ([6]; 2nd value column (head not given, TCR Vβ8(39-59)-selected line)): 2 cpm × 10^-3
- induction of T cell immunity (T cell immunity): did induce immunity
